The results in this text go back to patent publication US20220040086A1, “FORMULATION AND AEROSOL CANISTERS, INHALERS, AND THE LIKE CONTAINING THE FORMULATION” (KINDEVA DRUG DELIVERY L.P., priority 2018, published 2022).

A short description of series [1]: Rehydration of anhydrous ipratropium bromide (sample weight over time). The format is physicochemical. The procedure:
The weight of the powder after heating was 9.563 g. The sample was weighed every 10 minutes for 90 minutes and then left over the weekend at 24° C. and 30% humidity.
The sample was then placed in a desiccator for 24 hours and weighed again.

The conditions of series [2]: 50 mg in 2 g Malvern dispersant (lecithin in isooctane), sonicated 3 minutes.
The conditions of series [3]: 30 mg in 30 mL 2H,3H-decafluoropentane, sonic probe 1 minute.
Protocol: 30 mg of the resulting anhydrous ipratropium bromide was added to a glass sample jar followed by 30 mL of 2H,3H-decafluoropentane.
The conditions of series [4]: general statement. The text has this:
The two formulations were examined by microscope after 2 and 4 weeks storage at ambient temperature and humidity. Each vial was sprayed onto a microscope slide via a standard 3M MK6 actuator.

A short description of series [5]: Differential scanning calorimetry thermogram. The format is physicochemical. To be noted: DSC thermogram. The text has this: Ipratropium, in particular ipratropium bromide, is commercially available as a hydrate, and more particularly as the monohydrate. Dehydration of hydrated ipratropium, in particular ipratropium bromide monohydrate, can be achieved by any suitable method. […] A particularly suitable method is heating the particulate ipratropium, in particular ipratropium bromide monohydrate, in a drying oven for a period of time. The drying oven can be heated to a temperature high enough to remove the water. […] Useful oven temperatures at ambient pressure include at least 100° C., at least 110° C., at least 120° C., at least 125° C., no greater than 240° C., no greater than 230° C., no greater than 225° C., between 100° C. and 240° C., between 110° C. and 230° C., between 120° C. and 220° C., between 125° C. and 215° C., or more particularly about 125° C. The use of pressures less than ambient pressure, such as in a vacuum oven, can be useful in reducing the temperature for dehydration. The time necessary to dehydrate the particulate ipratropium, in particular ipratropium bromide monohydrate, is the amount of time it takes to remove the desired amount of water from the particulate ipratropium. If the amount of water in a sample of particulate ipratropium is known, complete dehydration is complete when the mass of the remaining ipratropium is essentially anhydrous ipratropium. […]
On the technique in general: In DSC, transitions show as peaks or steps in heat flow.

Turning to `CC(C)[N+]1(C)[C@@H]2CC[C@H]1CC(OC(=O)C(CO)c1ccccc1)C2.[Br-]` (stereo partly shown) [anhydrous ipratropium bromide], the Sample weight is 9.597 g in series [1] (10 mins); 9.600 g in series [1] (20 mins); 9.601 g in series [1] (30 mins); 9.602 g in series [1] (40 mins); 9.603 g in series [1] (50 mins); 9.603 g in series [1] (60 mins). Moreover, the Sample weight is given as 9.602 g in series [1] (70 mins); 9.602 g in series [1] (80 mins); 9.603 g in series [1] (90 mins); 9.606 g in series [1] (2.5 days at 24° C. and 30% humidity); 9.568 g in series [1] (after a further 24 hours in a desiccator). The “weight decrease relative to unmicronized ipratropium bromide monohydrate starting material” value in series [1] (after 2.5 days at 24° C. and 30% humidity (9.606 g)) is reported as 3.94%. Moreover, in series [1] (after a further 24 hours in a desiccator (9.568 g)), the “weight loss relative to unmicronized ipratropium bromide monohydrate starting material” value is 4.14%. For the same molecule, the “agglomerates under a microscope” value in series [2] is “essentially free of agglomerates”. In addition, the dispersion appearance entry in series [2] is “dispersed satisfactorily”. In addition, in series [3], the “agglomeration observed with magnifying glass (x10)” value is “significant agglomeration”.

With `CC(C)[N+]1(C)[C@@H]2CC[C@H]1C[C@@H](OC(=O)C(CO)c1ccccc1)C2.O.[Br-]` (stereo partly shown) [micronized ipratropium bromide monohydrate], in series [2], the “agglomerates under a microscope” value is given as “essentially free of agglomerates” and the dispersion appearance entry was “dispersed satisfactorily”. Besides, the “agglomeration observed with magnifying glass (x10)” value in series [3] is given as “not”.

For the molecule `CC(C)[N+]1(C)[C@@H]2CC[C@H]1CC(OC(=O)C(CO)c1ccccc1)C2.[Br-]` (stereo partly shown) [anhydrous micronized ipratropium bromide], the “stability when formulated in a HFA propellant” value in series [4] was “stable”.

On to `CC(C)[N+]1(C)[C@@H]2CC[C@H]1C[C@@H](OC(=O)C(CO)c1ccccc1)C2.O.[Br-]` (stereo partly shown) [ipratropium bromide monohydrate], for which, in series [5], the degradation temperature entry is “approximately 240 °C” and the “water loss starting temperature” value is “approximately 100 °C”.
